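Where inhibition never reached the appropriate level, the endpoint shown equals the highest concentration tested. Otherwise, values were interpolated linearly from a five-concentration, 48-hour dose response in 96-well plates. TGI: total growth inhibition.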
What was measured:
Test in all cases: NCI tumour cell line growth inhibition, 48 h
[1] = tested on: P388/ADR leukemia
[2] = tested on: OVCAR-8 ovarian
[3] = tested on: KM12 colon
[4] = tested on: SN12K1 renal
[5] = tested on: P388 leukemia
[6] = tested on: MOLT-4 leukemia
[7] = tested on: SNB-19 CNS
[8] = tested on: SF-295 CNS
[9] = tested on: HCT-15 colon
[10] = tested on: HOP-92 NSCLC
[11] = tested on: A549 NSCLC
[12] = tested on: U251 CNS
[13] = tested on: SK-MEL-5 melanoma
[14] = tested on: SF-268 CNS
[15] = tested on: SK-OV-3 ovarian
[16] = tested on: SK-MEL-28 melanoma
[17] = tested on: HCT-116 colon
[18] = tested on: MCF7 breast
[19] = tested on: SW-620 colon
[20] = tested on: SN12C renal
[21] = tested on: SF-539 CNS
[22] = tested on: M19-MEL melanoma
[23] = tested on: XF 498 CNS
[24] = tested on: OVCAR-3 ovarian
[25] = tested on: NCI-H23 lung
[26] = tested on: COLO 205 colon
[27] = tested on: DLD-1 colon
[28] = tested on: HOP-18 NSCLC
[29] = tested on: DMS 114 small cell lung
[30] = tested on: NCI/ADR-RES ovarian
[31] = tested on: UACC-257 melanoma
[32] = tested on: K-562 leukemia
[33] = tested on: KM20L2 colon
[34] = tested on: RXF 393 renal
[35] = tested on: SK-MEL-2 melanoma
[36] = tested on: NCI-H522 lung
[37] = tested on: NCI-H226 lung
[38] = tested on: HOP-62 NSCLC
[39] = tested on: NCI-H460 lung
[40] = tested on: OVCAR-5 ovarian
[41] = tested on: LOX IMVI melanoma
[42] = tested on: CCRF-CEM leukemia
[43] = tested on: CAKI-1 renal
[44] = tested on: HT29 colon
[45] = tested on: SNB-78 CNS
[46] = tested on: DMS 273 small cell lung
[47] = tested on: OVCAR-4 ovarian
[48] = tested on: HL-60(TB) leukemia
[49] = tested on: EKVX NSCLC
[50] = tested on: HCC-2998 colon
[51] = tested on: A498 renal
[52] = tested on: RPMI-8226 leukemia
[53] = tested on: MALME-3M melanoma
[54] = tested on: UO-31 renal
[55] = tested on: IGROV1 ovarian
[56] = tested on: UACC-62 melanoma
[57] = tested on: SNB-75 CNS

`CC(C)=CCc1c(O)ccc2c1OC1c3ccc(O)c(CC=C(C)C)c3OCC21` (configuration not stated) showed a TGI [1] of 32.2 µM, a TGI [2] of 52.6 µM and a TGI [3] of 33.7 µM. The TGI [4] was 20.2 µM, the TGI [5] was 37.4 µM and the TGI [6] was 16 µM. The TGI [7] was 27.6 µM, the TGI [8] was 24.3 µM and the TGI [9] was 18.1 µM. It also gave a TGI [10] of over 100 µM, a TGI [11] of 26.5 µM and a TGI [12] of 21.3 µM. It also gave a TGI [13] of 17.8 µM, a TGI [14] of 27 µM and a TGI [15] of 35.1 µM. For the same compound, the TGI [16] was 28.7 µM, the TGI [17] was 18.3 µM and the TGI [18] was 16.9 µM. The TGI [19] was 22.5 µM, the TGI [20] was 30.3 µM and the TGI [21] was 23.9 µM. For the same compound, the TGI [22] was 24.2 µM, the TGI [23] was 32.6 µM and the TGI [24] was 27 µM. For the same compound, the TGI [25] was over 55.1 µM, the TGI [26] was 33 µM and the TGI [27] was 18.9 µM. The TGI [28] was 33.3 µM, the TGI [29] was 26.3 µM and the TGI [30] was 32.2 µM. For the same compound, the TGI [31] was 29 µM, the TGI [32] was 25.3 µM and the TGI [33] was 34 µM. The TGI [34] was 22.1 µM, the TGI [35] was 34.3 µM and the TGI [36] was 25.5 µM. The TGI [37] was 30.7 µM, the TGI [38] was 23.9 µM and the TGI [39] was 16.1 µM. The TGI [40] was 27.1 µM, the TGI [41] was 22.3 µM and the TGI [42] was 43 µM. For the same compound, the TGI [43] was 25 µM, the TGI [44] was over 61.9 µM and the TGI [45] was 33 µM. For the same compound, the TGI [46] was 28.2 µM, the TGI [47] was 23.6 µM and the TGI [48] was 31.4 µM. It also gave a TGI [49] of 26.8 µM, a TGI [50] of 26 µM and a TGI [51] of 25 µM. The TGI [52] was 17.1 µM, the TGI [53] was 33.6 µM and the TGI [54] was 24 µM. It also gave a TGI [55] of 25.8 µM, a TGI [56] of 18.7 µM and a TGI [57] of 33.9 µM.

Source: PubChem BioAssay (NCI)
